Target: T1, interaction between biotinylated human S100A9 and human RAGE-Fc (Homo sapiens, UniProt P06702)
T1 construct: made in house; host or cells: E. coli BL21(DE3)/pET1120 (pLR757)
T1 sequence (P06702 1-114): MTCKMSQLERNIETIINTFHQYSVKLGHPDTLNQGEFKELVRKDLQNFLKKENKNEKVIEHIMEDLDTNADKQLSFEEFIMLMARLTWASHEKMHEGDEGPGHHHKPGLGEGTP
Assay: AlphaScreen inhibition assay, Biot-hS100A9:hRAGE-Fc (S100A9-RAGE inhibition assay)
Type: binding
Conditions: biot-hS100A9 and rhRAGE-Fc, Ca2+ and Zn2+ in buffer
Method in brief: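 Biotinylated human S100A9, in HBS-P with CaCl2 and ZnCl2, preincubated 1 h at room temperature in the dark with compound (final DMSO ≤1.25%), then combined with rhRAGE-Fc on protein A Acceptor beads plus streptavidin Donor beads (20 μg/mL each). Protein levels batch-dependent; percent inhibition from AlphaScreen signal vs DMSO-only control.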

Compound	IC50 [nM]
COCCN(C)c1cccc(C(=O)NC2(C(F)(F)F)C(=O)Nc3nc4cc(Cl)c(Cl)cc4n32)n1 (stereo not drawn) [Example 94, N-[10,11-dichloro-4-oxo-3-(trifluoromethyl)-2,5,7-triazatricyclo[6.4.0.0^2,6]dodeca-1(8),6,9,11-tetraen-3-yl]-6-[(2-methoxyethyl)(methyl)amino]pyridine-2-carboxamide]	1590
Cc1cc2nc3n(c2cc1C)C(NC(=O)CC1CCCCC1)(C(F)(F)F)C(=O)N3 (stereo not drawn) [Example 20, 2-cyclohexyl-N-[10,11-dimethyl-4-oxo-3-(trifluoromethyl)-2,5,7-triazatricyclo-[6.4.0.0^2,6]dodeca-1(8),6,9,11-tetraen-3-yl]acetamide]	1700
COc1ccc(-c2cccc3c2nc2n3C(NC(=O)CCC3CCCC3)(C(F)(F)F)C(=O)N2)cn1 (stereo not drawn) [Example 188, 3-cyclopentyl-N-[9-(6-methoxypyridin-3-yl)-4-oxo-3-(trifluoromethyl)-2,5,7-triazatricyclo[6.4.0.0^2,6]dodeca-1(12),6,8,10-tetraen-3-yl]propanamide]	940
O=C(NC1(C(F)(F)F)C(=O)Nc2nc3ccccc3n21)c1cc(Cl)cc(Cl)c1 (stereo not drawn) [Example 12, 3,5-dichloro-N-[4-oxo-3-(trifluoromethyl)-2,5,7-triazatricyclo[6.4.0.0^2,6]dodeca-1(12),6,8,10-tetraen-3-yl]benzamide]	3000
O=C(NC1(C(F)(F)F)C(=O)Nc2nc3cc(Cl)c(Cl)cc3n21)[C@@H]1CCCN1 (mixture of isomers) [Example 41, (2S)—N-[10,11-dichloro-4-oxo-3-(trifluoromethyl)-2,5,7-triaza-tricyclo[6.4.0.0^2,6]dodeca-1(12),6,8,10-tetraen-3-yl]pyrrolidine-2-carboxamide]	2000
O=C(CCC1CCCC1)NC1(C(F)(F)F)C(=O)Nc2nc3c(C(F)(F)F)cc(Br)cc3n21 (stereo not drawn) [Example 129, N-[11-bromo-4-oxo-3,9-bis(trifluoromethyl)-2,5,7-triazatricyclo[6.4.0.0^2,6]dodeca-1(8),6,9,11-tetraen-3-yl]-3-cyclopentylpropanamide]	2260
O=C(NC1(C(F)(F)F)C(=O)Nc2nc3cc(Cl)c(Cl)cc3n21)C1CCCC1 (stereo not drawn) [Example 54, N-[10,11-dichloro-4-oxo-3-(trifluoromethyl)-2,5,7-triazatricyclo[6.4.0.0^2,6]dodeca-1(12),6,8,10-tetraen-3-yl]cyclopentanecarboxamide]	1600
O=C(NC1(C(F)(F)F)C(=O)Nc2nc3cc(Cl)c(Cl)cc3n21)c1cc(Cl)cc(Cl)c1 (stereo not drawn) [Example 57, 3,5-dichloro-N-[10,11-dichloro-4-oxo-3-(trifluoromethyl)-2,5,7-triazatricyclo-[6.4.0.0^2,6]dodeca-1(12),6,8,10-tetraen-3-yl]benzamide]	2800
Cc1ccc(-c2cccc3c2nc2n3C(NC(=O)CCC3CCCC3)(C(F)(F)F)C(=O)N2)cc1 (stereo not drawn) [Example 202, 3-cyclopentyl-N-[9-(4-methylphenyl)-4-oxo-3-(trifluoromethyl)-2,5,7-triazatricyclo[6.4.0.0^2,6]dodeca-1(12),6,8,10-tetraen-3-yl]propanamide]	700
